What is called melting point is the temperature, or range, at which the solid turns liquid.

For `Cc1nc2cc3c(cc2s1)C1(CO3)C(=O)N(CCC(C)C)c2ccccc21` (stereo not given), the melting point lay in the range of 137 to 138 °C.
In turn, `Cc1c(C)c2c(c(C)c1O)CCC(C)(C(=O)Nc1ccccc1)O2` (stereo not given) showed a melting point of 107 to 109 °C.
As for `CC(C)(Oc1ccc(OCCOc2cc(C(C)(C)C)c(O)c(C(C)(C)C)c2)cc1)C(=O)O`, the melting point came to 124 °C.
As for `Cc1cc(Oc2cccc(C(F)(F)F)c2)nn1C(=O)Nc1ccc(Cl)cc1Cl`, the melting point is 113 to 114 °C.
In turn, `CCCC(=O)c1ccc(=O)[nH]c1CCC` showed a melting point of 86 to 88 °C.
Turning to `C[C@@H]1C[C@H](C)CN(C(=O)[C@@H]2Cc3ccccc3N2c2nccs2)C1`, the melting point is 172 to 174 °C.
For `O=S1(=O)c2ccccc2C(c2ccccc2)N1CCCN1CCN(c2ccc(F)cc2)CC1` (racemic) the value was 182 °C; for `Cc1cccc(C)c1NC(=O)c1ccc(NC(=O)CN(C)C)cc1`, 276 to 278 °C.
Regarding `CCc1ncc(CCCOc2c(C)cc(-c3noc(C(F)F)n3)cc2C)s1`, the melting point was 68 to 70 °C.
The figure for `COCCn1c(=O)ccc2cnc(Nc3ccccc3)nc21` is 179 to 180 °C.
The figure for `CN(C)C(=CC(=O)C(F)(F)F)NCc1ccc(Cl)nc1` is 85 °C; for `CN1CCN(C2=Nc3ccccc3Sc3ccccc32)C[C@H]1Cc1ccccc1` it is 46 to 63 °C.
For the compound `CC(=O)Oc1cccc2sc(-c3ccc(C(=O)O)cc3)nc12`, the melting point fell in the range of 229 to 233 °C.
For `CCOC(=O)C1=C(C)NC(c2ncc[nH]2)=NC1c1ccccc1Cl` (stereo not given) the value was 121 to 125 °C; for `CCOC(=O)Cn1c(=O)c2cc(F)c(-c3ncc[nH]3)cc2n(Cc2ccc(Cl)cc2Cl)c1=O`, 192 to 193 °C; for `Cc1cc(C)c2c(c1C)OC(C)(C)C2`, 47 °C.
`CC(C)(C)OC(=O)C1CCCN1Cc1ccc2cc(NC(=O)c3ccc(-c4ccc(Cl)cc4)cc3)ccc2n1` (stereo not given) gave a melting point of 163 to 166 °C.
The figure for `Cc1cc(O)ccc1-c1noc2cc(O)ccc12` is 229 to 231 °C.
Consider `Cc1c(N=C2NCCN2)cccc1N(C)C`, for which the melting point lay in the range of 116 to 118 °C.
The figure for `CCCCCCCCCCCCCCCCCCOc1cc(OCCCOc2ccccc2)cc(C(=O)OCc2ccccc2)c1` is 46 to 47 °C; for `Cc1nc(N2CCc3ccccc3CC2)c(C#N)c(=O)n1C(F)F` it is 143 °C.
For `Cc1c(C)c(S(=O)(=O)C[N+](=O)[O-])c(C)c2c1OCCC2` the value was 104 to 106 °C.
The figure for `Brc1ccc2c(c1)/C(=C\CN1CCCC1)c1ccccc1CO2` is 108 to 109 °C; for `CCNS(=O)(=O)c1nc2cc(C(=O)c3ccccc3)ccc2[nH]1` it is 250 to 253 °C.
In turn, `COc1cccc(CC(=O)O)c1OCCCc1cc(C(C)C)nn1Cc1ccc(Cl)cc1Cl` yielded a melting point of 101 to 102 °C.
`CCSc1nc2c(C)sc(C(=O)O)c2n1Cc1ccc(-c2ccccc2-c2nc(=O)[nH]o2)cc1` gave a melting point of 144 to 147 °C.
On to `Oc1c(C(O)(C(F)(F)F)C(F)(F)F)cc(Br)c2ccccc12`, for which the melting point fell in the range of 112 to 115 °C.
`CCNc1nc(-c2ccc(F)cc2C)c2ccc(=O)n(-c3ccccc3F)c2n1`: the melting point was 176 to 177 °C.
`CCCCn1ccc(C=O)cc1=O` displayed a melting point of 36 to 40 °C.
Compound `CCCn1cc(Cc2ccc(C(=O)O)cc2OC)c2cc(CC(C)C(=O)N3CCCC3)ccc21` (stereo not given) gave a melting point of 92 to 100 °C.
`Oc1ccc2c(c1)SCCc1c-2n(CCCCCN2CCCC2)c2ccccc12` came in with a melting point of 158 °C.
As to `COc1ccc(-n2cccc2-c2ccc(S(C)(=O)=O)cc2)cc1F`, the melting point was in the range of 116 to 118 °C.
In turn, `CCCN1C(=O)CN=C(c2cccc(C(F)(F)F)c2)c2cc(OC)c(OC)cc21` yielded a melting point of 135 to 137 °C.
The compound `CCc1ccc(-c2ccc(CCc3ccc(C)cc3)cc2)c(F)c1` gave a melting point of 65 °C.
The figure for `COc1cc(C)c(C(=O)c2c(OC)cncc2C(F)(F)F)c(OC)c1OC` is 103 to 106 °C; for `Cc1oc(-c2ccccc2)nc1COc1ccc(COc2nn(Cc3ccc(OCc4nc(-c5ccccc5)oc4C)cc3)cc2CO)cc1` it is 157 to 158 °C; for `CCCCCCCCCCCCCCCCCCOc1cc(OCCCOc2ccc(OCc3ccccc3)cc2)cc(C(=O)OC)c1` it is 76 to 77 °C.
The figure for `CCOC(=O)C1Cc2c([nH]c3ccccc23)C(c2ccc(N(C)C)cc2)N1` (stereo not given) is 170 °C.
The figure for `CC1=Nc2ccc(C)cc2C(=O)C1` is 80 to 82 °C.
Regarding `CCOc1ccc(NN=C2CCC(C)n3c2ncc(C(=O)O)c3=O)cc1` (stereo not given), the melting point fell in the range of 218 to 219 °C.
For `Oc1ccc(Cl)cc1C1(O)CCCCC1` the value was 110 °C; for `Cc1cncn1Cc1ccc(N)cc1`, 124 to 125 °C; for `CCCCCCOc1ccc(C(=O)NCC2CCCC2(C)C)cc1` (single isomer, unassigned; (+)), 68 to 69 °C.
The figure for `CC(C)C(=O)N[C@H]1CCc2c(c3cc(Br)ccc3n2Cc2ccccc2)C1` is 177 to 179 °C; for `O=C(C=Cc1cccnc1)NCCCOC1CCN(Cc2ccccc2)CC1` it is 100 to 102 °C; for `Cc1c(-c2ccccc2)c2c(c3c1[nH]c1ccc(O)cc13)C(=O)NC2=O` it is 270 to 280 °C.
For `CN1C(=O)[C@H](NC(=O)Nc2cccc(CC(=O)O)c2)N=C(c2ccccc2)c2ccccc21` the value was 167 to 170 °C; for `O=C(O)c1ccn(-c2ccc(F)cc2)c1`, 204 to 205 °C; for `C=C(C)COc1ccc(C=CC(=O)OCCCC)cc1`, 32 to 33 °C.
In the case of `COCCOC(=O)c1cc(C(=O)NOC)c(O)c2ncc(Cc3ccc(F)cc3)cc12`, the melting point was 166 to 168 °C.
The figure for `COc1cc(Nc2c(C#N)cnc3cc(/C=C/CCCN4CCOCC4)c(OC)cc23)c(Cl)cc1Cl` is 110 to 112 °C; for `CCCCc1ncc(Sc2ccccc2C(=O)O)n1Cc1ccc(C(=O)O)cc1` it is 260 to 262 °C; for `CCCCC(=O)c1c(-c2ccc3c(Cl)c(OCc4nnn[nH]4)ccc3c2)oc2ccccc12` it is 168 to 169 °C.
The compound `COc1ccc2c(c1)C(CCNC(C)=O)=C(Cc1ccccc1)C2` registered a melting point of 133 to 135 °C.
In the case of `CC=CC(=O)C1C(C)C(=O)CCC1(C)C` (stereo not given), the melting point is 76 to 77 °C.
For `COc1ccc(C(=O)C2=CCCCC2)c(Cl)c1Cl` the value was 126 to 129 °C.
`CCOC(=O)c1cccc(C2COc3cc(O)c(O)cc3C2)c1` (stereo not given) returned a melting point of 131 to 133 °C.
The figure for `CCOC(=O)C1CCN(C(=O)/C=C/c2ccc(Sc3ccc4c(c3)OCCO4)c([N+](=O)[O-])c2)CC1` is 78 to 88 °C; for `COc1ccc(-c2c(Cl)c(CNC(C)(C)C)nc3sc4c(c23)CCN(Cc2ccccc2)C4)cc1OC` it is 134 to 135 °C; for `CCOC(=O)c1csc(-c2cccnc2)n1` it is 73 to 75 °C.
For `CC(=O)NC(C)(C)c1ccc(C(C)N2CCN(c3ccc(F)cc3)CC2)cc1` (stereo not given) the value was 156 to 157 °C.
The figure for `O=C(O)Cn1c(=O)c2ccccc2n(CCCCN2CCC(OC(c3ccccc3)c3ccccc3)CC2)c1=O` is 184 to 186 °C.
In turn, `CN(C)C(=O)c1nc(-c2ccccc2)nc2c1c1ccccc1n2C` gave a melting point of 193 to 195 °C.
The figure for `Cc1ccc2c(Cc3nc4c(F)c(F)cc(F)c4s3)cn(CC(=O)O)c2c1` is 211 to 213 °C.
For the compound `O=c1[nH]c(=O)c2cc3occoc3cc12`, the melting point lay within 277 to 280 °C.
`COc1ccc2occ(CCN3CCN(c4cccc5cccnc45)CC3)c2c1` came in with a melting point of 78 °C.
For `Cc1cccc(COc2cccc(COc3ccc4ccccc4n3)c2)c1C(=O)O` the value was 68 to 72 °C.
In turn, `O=c1c2c(Cl)cccc2nc(C(S)c2ncnc3[nH]cnc23)n1-c1ccccc1F` (stereo not given) showed a melting point of 244 °C.
For `CCOC(=O)CCCCCCCCCCCNC(=O)c1cc(OCc2ccccc2)ccc1OCc1ccccc1` the value was 70 to 71 °C; for `CN(C)C(=O)OCCn1nc(-c2cc(C(C)(C)C)c(O)c(C(C)(C)C)c2)c2cccnc21`, 99 to 101 °C.
With `COc1ccccc1CCn1nnnc1-c1ccc2c(c1)C=CC(C)(C)O2`, the melting point was 101 to 105 °C.
Take `CN1C(=O)C2(COc3cc4c(cc32)OCCO4)c2c(C(=O)Nc3ccc(F)cc3)cccc21` (stereo not given): the melting point was above 250 °C.
On to `CN1C2=CC=CN(CCc3ccc(OCc4ccccc4)cc3)C2=Nc2ccccc2S1(=O)=O`, for which the melting point was in the range of 133 to 134 °C.
On to `COc1ccc(C=Cc2ccccc2)c(-c2ccc(-c3cc(OC)ccc3C=Cc3ccccc3)n2-c2ccc(C)cc2)c1`, for which the melting point fell in the range of 303 to 305 °C.
The figure for `CCCC(NS(=O)(=O)c1ccc(C)cc1)P(=O)(Oc1ccccc1)Oc1ccccc1` (stereo not given) is 178 to 180 °C; for `CC(C)[C@@H]1C[C@@H]([C@H](C[C@H](C(=O)N2C(=O)OC[C@@H]2Cc2ccccc2)C(C)C)N=[N+]=[N-])OC1=O` it is 102 to 103 °C.
For `CC(C)Cc1c2c(nn1C)c(N)nc1ncccc12` the value was above 250 °C.
For `O=C(CC1CCCC1)c1ccc(Cn2ccc3ncnc-3c2)cc1` the value was 153 to 156 °C.
`COc1cc2ncnc(N3CCc4c(Br)ccc(C)c43)c2cc1OC`: the melting point was in the range of 223 to 225 °C.
`COc1ccc(-c2nc(CC(=O)O)c(-c3ccco3)o2)cc1` yielded a melting point of 177 to 178 °C.
On to `COc1ccc2cccc(CCN3C(=O)c4ccccc4C3=O)c2c1`, for which the melting point worked out at 154 °C.
For `O=C(NCCn1cncn1)c1ccc(Cl)nc1` the value was 186 to 188 °C; for `O=C(O)Cc1ccc(NC(=O)C(COc2cccc(Cl)c2)NS(=O)(=O)c2ccc(Br)cc2)cc1` (racemic), 225 to 228 °C.
Compound `Cc1cc(Br)cnc1C#N` registered a melting point of 86 to 88 °C.
For `NC(=O)c1cc(OC(F)(F)F)ccc1O`, the melting point fell in the range of 188 to 190 °C.
